Where two headings read alike, the source gives them in different places.
Tests used:
Format in all cases: biochemical
ADAM10 = biological target: T1, ADAM10 (Homo sapiens, UniProt O14672); assay: SensoLyte 520 ADAM10 fluorometric activity assay (AnaSpec AS-72226); conditions: FRET peptide substrate, ex/em 495/520 nm; read-out: ADAM 10 IC50 class
T1 construct: purchased AnaSpec, Inc. AS-72226
T1 sequence (O14672 214-748): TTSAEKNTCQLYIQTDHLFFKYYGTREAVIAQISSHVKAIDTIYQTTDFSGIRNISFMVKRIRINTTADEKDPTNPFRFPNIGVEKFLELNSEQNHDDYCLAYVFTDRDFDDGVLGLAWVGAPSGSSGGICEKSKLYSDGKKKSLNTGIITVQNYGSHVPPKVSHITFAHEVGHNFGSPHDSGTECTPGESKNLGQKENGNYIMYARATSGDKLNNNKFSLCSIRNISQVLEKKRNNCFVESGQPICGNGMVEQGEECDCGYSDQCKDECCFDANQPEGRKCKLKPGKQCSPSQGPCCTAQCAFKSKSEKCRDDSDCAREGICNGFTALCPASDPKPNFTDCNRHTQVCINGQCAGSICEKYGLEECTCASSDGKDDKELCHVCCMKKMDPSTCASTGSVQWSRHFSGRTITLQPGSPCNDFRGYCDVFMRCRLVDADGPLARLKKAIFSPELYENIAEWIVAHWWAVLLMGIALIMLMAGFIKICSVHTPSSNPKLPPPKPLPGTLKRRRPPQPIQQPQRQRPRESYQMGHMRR
Procedure: The inhibitory activities of the compounds of the invention were assessed in 96-well microplate format using MMP1, MMP2, MMP9 and MMP13 colorimetric assay kits and TACE fluorometric assay kit from Enzo Life Sciences, Inc. The inhibitory effect of the compounds of the invention on ADAM10 activity were evaluated in 96-well microplate format using fluorometric assay from AnaSpec, Inc.
SensoLyte® 520 ADAM10 Activity Assay Kit (catalog #AS-72226) is a complete assay system designed to screen ADAM10 inhibitors using FRET-based peptide substrate containing the 5-FAM/QXL™ 520 fluorophore/quencher pair. The fluorescence of 5-FAM is quenched by QXL™ 520 and recovered upon cleavage of the peptide by active ADAM10.
The inhibitory activity of the compounds of the invention against ADAM10 was tested according to the manufacturer's assay protocol and the fluorescence was monitored at excitation/emission wavelengths=495 nm/520 nm using Tecan Infinite® 200 Pro F Nano^+ microplate reader.
The normalized values were analyzed using GraphPadPrism 9 for Windows (GraphPad Software, San Diego, CA, USA) software by plotting inhibition curves and determining the IC50 values (in nM).

MMP1 = biological target: T2, MMP1 (Homo sapiens, UniProt P03956); assay: MMP-1 colorimetric inhibition assay (Enzo kit BML-AK404); conditions: thiopeptide substrate, absorbance 415 nm; read-out: MMP 1 IC50 class
T2 sequence (P03956 100-269 limits assumed): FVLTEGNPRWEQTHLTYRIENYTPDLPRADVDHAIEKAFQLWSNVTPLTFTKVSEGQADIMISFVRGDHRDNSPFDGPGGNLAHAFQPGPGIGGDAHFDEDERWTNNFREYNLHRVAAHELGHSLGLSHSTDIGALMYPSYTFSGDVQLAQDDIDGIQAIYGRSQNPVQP
How it was run: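 Colorimetric kit run per manufacturer protocol. MMP-1 cleaves a thiopeptide substrate (Ac-PLG-[2-mercapto-4-methylpentanoyl]-LG-OC2H5); released thiol reacts with DTNB, monitored at 415 nm. IC50 (nM) from inhibition curves of normalized values.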

MMP9 = MMP9 (Homo sapiens, UniProt P14780); assay: MMP-9 colorimetric inhibition assay (Enzo kit BML-AK410); conditions: thiopeptide substrate, absorbance 415 nm; read-out: MMP 9 IC50 class
MMP9, sequence (P14780 94-707): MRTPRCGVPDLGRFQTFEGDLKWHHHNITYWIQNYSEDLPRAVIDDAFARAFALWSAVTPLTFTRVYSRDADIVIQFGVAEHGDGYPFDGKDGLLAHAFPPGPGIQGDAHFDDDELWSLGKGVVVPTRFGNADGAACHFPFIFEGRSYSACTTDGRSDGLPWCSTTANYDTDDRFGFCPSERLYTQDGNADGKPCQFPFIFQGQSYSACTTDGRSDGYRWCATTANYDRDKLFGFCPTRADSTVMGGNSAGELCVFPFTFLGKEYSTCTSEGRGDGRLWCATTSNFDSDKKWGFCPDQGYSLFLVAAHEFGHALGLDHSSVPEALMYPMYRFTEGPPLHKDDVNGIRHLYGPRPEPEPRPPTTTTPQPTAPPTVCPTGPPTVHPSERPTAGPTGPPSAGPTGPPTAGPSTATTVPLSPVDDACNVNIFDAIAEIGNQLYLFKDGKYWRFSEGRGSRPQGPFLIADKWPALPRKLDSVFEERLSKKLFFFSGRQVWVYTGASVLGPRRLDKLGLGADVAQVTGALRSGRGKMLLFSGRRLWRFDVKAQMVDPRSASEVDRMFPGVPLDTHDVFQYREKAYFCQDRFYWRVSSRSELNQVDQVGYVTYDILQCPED
How it was run: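 Colorimetric thioester-substrate assay: hydrolysis of Ac-PLG-[2-mercapto-4-methylpentanoyl]-LG-OC2H5 frees a thiol that reacts with DTNB, read at 415 nm. Run per kit protocol. IC50 (nM) taken from inhibition curves of normalized values.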

ADAM17 (TACE) = ADAM17 (TACE) (Homo sapiens, UniProt P78536); assay: TACE fluorometric inhibition assay (Enzo kit BML-AK310); conditions: quenched fluorogenic peptide, ex/em 320/420 nm; read-out: TACE IC50 class
ADAM17 (TACE), sequence (P78536 215-477 limits assumed): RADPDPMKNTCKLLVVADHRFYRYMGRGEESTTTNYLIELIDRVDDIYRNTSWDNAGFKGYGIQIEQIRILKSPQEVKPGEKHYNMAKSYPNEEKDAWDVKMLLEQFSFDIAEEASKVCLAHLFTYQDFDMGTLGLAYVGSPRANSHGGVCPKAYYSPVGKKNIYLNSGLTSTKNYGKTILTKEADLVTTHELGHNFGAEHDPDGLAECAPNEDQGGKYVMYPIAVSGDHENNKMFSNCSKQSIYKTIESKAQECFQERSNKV
How it was run: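 Kit-based TACE assay run per manufacturer's protocol, using quenched fluorogenic peptide Mca-PLAQAV-Dpa-RSSSR-NH2 whose cleavage raises Mca fluorescence. Signal read at ex/em 320/420 nm; IC50 (nM) derived from inhibition curves of normalized values.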

MMP13 = biological target: T3, MMP13 (Homo sapiens, UniProt P45452); assay: MMP-13 colorimetric inhibition assay (Enzo kit BML-AK412)
T3 construct: purchased Enzo Life Sciences, Inc. BML-AK412
How it was run: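 Thiopeptide chromogenic substrate (Ac-PLG-[2-mercapto-4-methylpentanoyl]-LG-OC2H5); MMP-13 hydrolysis of the thioester yields a thiol that reacts with DTNB, read at 415 nm. IC50 values (nM) derived from inhibition curves of normalized data.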

MMP2 = biological target: T4, MMP2 (Homo sapiens, UniProt P08253); assay: MMP-2 colorimetric inhibition assay (Enzo kit BML-AK408); conditions: thiopeptide substrate, absorbance 415 nm; read-out: MMP 2 IC50 class
T4 sequence (P08253 110-660): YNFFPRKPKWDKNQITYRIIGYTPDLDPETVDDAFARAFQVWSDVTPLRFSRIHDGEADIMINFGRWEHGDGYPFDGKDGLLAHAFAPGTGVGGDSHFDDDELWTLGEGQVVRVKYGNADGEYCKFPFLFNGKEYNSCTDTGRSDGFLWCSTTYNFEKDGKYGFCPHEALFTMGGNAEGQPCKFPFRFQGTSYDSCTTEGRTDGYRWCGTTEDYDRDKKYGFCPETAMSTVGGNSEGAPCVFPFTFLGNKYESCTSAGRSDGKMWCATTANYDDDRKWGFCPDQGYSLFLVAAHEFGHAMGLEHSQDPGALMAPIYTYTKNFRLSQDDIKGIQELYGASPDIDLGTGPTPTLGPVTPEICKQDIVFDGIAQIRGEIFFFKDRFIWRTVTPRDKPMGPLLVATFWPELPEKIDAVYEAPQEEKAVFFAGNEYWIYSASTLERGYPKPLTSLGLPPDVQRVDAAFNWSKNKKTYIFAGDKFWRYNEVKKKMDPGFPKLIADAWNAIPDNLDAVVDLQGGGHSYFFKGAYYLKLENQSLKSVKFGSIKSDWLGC
How it was run: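 Cleavage of the thiopeptide Ac-PLG-[2-mercapto-4-methylpentanoyl]-LG-OC2H5 releases a sulfhydryl that reacts with DTNB, read at 415 nm per the kit protocol. IC50 values (nM) come from inhibition curves of normalized data.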

[1] = thiopeptide substrate, absorbance 415 nm, read-out: MMP 13 IC50 class

COCCOC(=O)N1[C@@H]2CC[C@H]1[C@H](C(=O)NO)N(S(=O)(=O)c1ccc(OC3CCCCC3)nc1)C2 [Example 10, 2-methoxyethyl (1S,2R,5R)-3-((6-(cyclohexyloxy)pyridin-3-yl)sulfonyl)-2-(hydroxycarbamoyl)-3,8-diazabicyclo[3.2.1]octane-8-carboxylate]
IC50 (ADAM10): > 10000 nM
IC50 (MMP1): 50 to 1000 nM
IC50 (MMP9): < 50 nM
IC50 (ADAM17 (TACE)): 1000 to 10000 nM
IC50 (MMP13; [1]): < 50 nM
IC50 (MMP2): < 50 nM

COCCOC(=O)N1[C@@H]2CC[C@H]1[C@H](C(=O)NO)N(S(=O)(=O)c1ccc(Oc3ccc(OC)cc3)nc1)C2 [Example 18, 2-methoxyethyl (1S,2R,5R)-2-(hydroxycarbamoyl)-3-((6-(4-methoxy-phenoxy)pyridin-3-yl)sulfonyl)-3,8-diazabicyclo-[3.2.1]octane-8-carboxylate]
IC50 (ADAM10): 1000 to 10000 nM
IC50 (MMP1): 1000 to 10000 nM
IC50 (MMP9): < 50 nM
IC50 (ADAM17 (TACE)): 1000 to 10000 nM
IC50 (MMP13; [1]): < 50 nM
IC50 (MMP2): < 50 nM

COCCOC(=O)N1[C@@H]2CC[C@H]1[C@H](C(=O)NO)N(S(=O)(=O)c1ccc(Oc3ccc(OC(F)(F)F)cc3)nc1)C2 [Example 19, 2-methoxyethyl (1S,2R,5R)-2-(hydroxycarbamoyl)-3-((6-(4-(trifluoro-methoxy)phenoxy)-pyridin-3-yl)-sulfonyl)-3,8-diaza-bicyclo[3.2.1]octane-8-carboxylate]
IC50 (ADAM10): > 10000 nM
IC50 (MMP1): 1000 to 10000 nM
IC50 (MMP9): < 50 nM
IC50 (ADAM17 (TACE)): 1000 to 10000 nM
IC50 (MMP13; [1]): < 50 nM
IC50 (MMP2): < 50 nM

COCCOC(=O)N1[C@@H]2CC[C@H]1[C@H](C(=O)NO)N(S(=O)(=O)c1ccc(Oc3ccc(Cl)cc3F)nc1)C2 [Example 20, 2-methoxyethyl (1S,2R,5R)-3-((6-(4-chloro-2-fluoro-phenoxy)pyridin-3-yl)sulfonyl)-2-(hydroxycarbamoyl)-3,8-diazabicyclo[3.2.1]-octane-8-carboxylate]
IC50 (ADAM10): 1000 to 10000 nM
IC50 (MMP1): 50 to 1000 nM
IC50 (MMP9): < 50 nM
IC50 (ADAM17 (TACE)): 50 to 1000 nM
IC50 (MMP13; [1]): < 50 nM
IC50 (MMP2): < 50 nM

COCCOC(=O)N1[C@@H]2CC[C@H]1[C@H](C(=O)NO)N(S(=O)(=O)c1ccc(Oc3ccc(F)cc3F)nc1)C2 [Example 21, 2-methoxyethyl (1S,2R,5R)-3-((6-(2,4-difluoro-phenoxy)pyridin-3-yl)sulfonyl)-2-(hydroxycarbamoyl)-3,8-diazabicyclo-[3.2.1]octane-8-carboxylate]
IC50 (ADAM10): > 10000 nM
IC50 (MMP1): 50 to 1000 nM
IC50 (MMP9): < 50 nM
IC50 (ADAM17 (TACE)): 50 to 1000 nM
IC50 (MMP13; [1]): < 50 nM
IC50 (MMP2): < 50 nM

COCCOC(=O)N1[C@@H]2CC[C@H]1[C@H](C(=O)NO)N(S(=O)(=O)c1ccc(Oc3ccc(F)c(F)c3)nc1)C2 [Example 22, 2-methoxyethyl (1S,2R,5R)-3-((6-(3,4-difluoro-phenoxy)pyridin-3-yl)sulfonyl)-2-(hydroxycarbamoyl)-3,8-diazabicyclo-[3.2.1]octane-8-carboxylate]
IC50 (ADAM10): > 10000 nM
IC50 (MMP1): 50 to 1000 nM
IC50 (MMP9): < 50 nM
IC50 (ADAM17 (TACE)): 50 to 1000 nM
IC50 (MMP13; [1]): < 50 nM
IC50 (MMP2): < 50 nM

COCCOC(=O)N1[C@@H]2CC[C@H]1[C@H](C(=O)NO)N(S(=O)(=O)c1ccc(Oc3ccc(OC(F)F)cc3)nc1)C2 [Example 24, 2-methoxyethyl (1S,2R,5R)-3-((6-(4-(difluoromethoxy)phenoxy)pyridin-3-yl)sulfonyl)-2-(hydroxycarbamoyl)-3,8-diazabicyclo[3.2.1]octane-8-carboxylate]
IC50 (ADAM10): 1000 to 10000 nM
IC50 (MMP1): 1000 to 10000 nM
IC50 (MMP9): < 50 nM
IC50 (ADAM17 (TACE)): 50 to 1000 nM
IC50 (MMP13; [1]): < 50 nM
IC50 (MMP2): < 50 nM

COCCOC(=O)N1[C@@H]2CC[C@H]1[C@H](C(=O)NO)N(S(=O)(=O)c1ccc(Oc3ccc(OCC(F)(F)F)cc3)nc1)C2 [Example 25, 2-methoxyethyl (1S,2R,5R)-2-(hydroxycarbamoyl)-3-((6-(4-(2,2,2-trifluoroethoxy)-phenoxy)pyridin-3-yl)sulfonyl)-3,8-diazabicyclo[3.2.1]-octane-8-carboxylate]
IC50 (ADAM10): > 10000 nM
IC50 (MMP1): 1000 to 10000 nM
IC50 (MMP9): < 50 nM
IC50 (ADAM17 (TACE)): > 10000 nM
IC50 (MMP13; [1]): < 50 nM
IC50 (MMP2): < 50 nM

COCCOC(=O)N1[C@@H]2CC[C@H]1[C@H](C(=O)NO)N(S(=O)(=O)c1ccc(Oc3ccc(OC)nc3)nc1)C2 [Example 28, 2-methoxyethyl (1S,2R,5R)-2-(hydroxycarbamoyl)-3-((6-((6-methoxy-pyridin-3-yl)oxy)-pyridin-3-yl)-sulfonyl)-3,8-diaza-bicyclo[3.2.1]octane-8-carboxylate]
IC50 (ADAM10): > 10000 nM
IC50 (MMP1): 50 to 1000 nM
IC50 (MMP9): < 50 nM
IC50 (ADAM17 (TACE)): 1000 to 10000 nM
IC50 (MMP13; [1]): < 50 nM
IC50 (MMP2): < 50 nM

CCOc1ccc(Oc2ccc(S(=O)(=O)N3C[C@H]4CC[C@@H]([C@@H]3C(=O)NO)N4C(=O)OCCOC)cn2)cc1 [Example 29, 2-methoxyethyl (1S,2R,5R)-3-((6-(4-ethoxyphenoxy)-pyridin-3-yl)-sulfonyl)-2-(hydroxycarbamoyl)-3,8-diazabicyclo-[3.2.1]octane-8-carboxylate]
IC50 (ADAM10): > 10000 nM
IC50 (MMP1): 50 to 1000 nM
IC50 (MMP9): < 50 nM
IC50 (ADAM17 (TACE)): 1000 to 10000 nM
IC50 (MMP13): < 50 nM
IC50 (MMP2): < 50 nM

COCCOC(=O)N1[C@@H]2CC[C@H]1[C@H](C(=O)NO)N(S(=O)(=O)c1ccc(Oc3ccc(OC(C)C)cc3)nc1)C2 [Example 30, 2-methoxyethyl (1S,2R,5R)-2-(hydroxycarbamoyl)-3-((6-(4-isopropoxy-phenoxy)pyridin-3-yl)sulfonyl)-3,8-diazabicyclo[3.2.1]-octane-8-carboxylate]
IC50 (ADAM10): > 10000 nM
IC50 (MMP1): 50 to 1000 nM
IC50 (MMP9): < 50 nM
IC50 (ADAM17 (TACE)): 1000 to 10000 nM
IC50 (MMP13; [1]): < 50 nM
IC50 (MMP2): < 50 nM

— patent US20250215010A1, “DIAZABICYCLOOCTANE DERIVATIVES USEFUL AS MATRIX METALLOPROTEINASE INHIBITORS” (VASA THERAPEUTICS SPOLKA Z OGRANICZONA ODPOWIEDZIALNOSCIA, priority 2022, published 2025)
